According to US8952024B2, “Herbicidal pyrimidone derivatives” (E I du Pont de Nemours and Company, priority 2009, dated 2015):

Experiments:
Type in all cases: in vivo
[1] = tested on: windgrass (Apera spica-venti); assay: Test B postemergence plant response
Summary of the method: (§1)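 Plants grown in peat/vermiculite medium were sprayed postemergence at 2–18 cm height (1- to 4-leaf stage). After 13–15 days in the greenhouse, response was rated visually against untreated controls on a 0–100 scale (0 no effect, 100 complete control).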

[2] = tested on: chickweed (Stellaria media); assay: Test B postemergence plant response
Summary of the method: as §1

[3] = tested on: canarygrass (Phalaris minor); assay: Test B postemergence plant response
Summary of the method: as §1

[4] = tested on: cocklebur (Xanthium strumarium); assay: Test B pre-/postemergence plant response
Summary of the method: (§2)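 Visual injury, 0–100 scale (100 = complete control), rated against controls after 13 to 15 days in greenhouse. Pre-emergence: seeds in loam/sand soil, treated at planting. Post-emergence: 1- to 4-leaf plants (2 to 18 cm) in peat/vermiculite medium. Compounds formulated in non-phytotoxic solvent with surfactant.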

[5] = tested on: pigweed (Amaranthus retroflexus); assay: Test B pre-/postemergence plant response
Summary of the method: as §2

[6] = tested on: kochia (Kochia scoparia); assay: Test B pre-/postemergence plant response
Summary of the method: as §2

[7] = tested on: wild oat (Avena fatua); assay: Test B pre-/postemergence plant response
Summary of the method: as §2

[8] = tested on: soybean (Glycine max); assay: Test B pre-/postemergence plant response
Summary of the method: as §2

[9] = tested on: goosegrass (Eleusine indica); assay: Test B pre-/postemergence plant response
Summary of the method: as §2

[10] = tested on: velvetleaf (Abutilon theophrasti); assay: Test B pre-/postemergence plant response
Summary of the method: as §2

[11] = tested on: johnsongrass (Sorghum halepense); assay: Test B pre-/postemergence plant response
Summary of the method: as §2

[12] = tested on: wheat (Triticum aestivum); assay: Test B pre-/postemergence plant response
Summary of the method: as §2

[13] = tested on: ragweed (common ragweed, Ambrosia elatior); assay: Test B pre-/postemergence plant response
Summary of the method: as §2

[14] = 31 g ai/ha, postemergence, scale 0 to 100, 0 is no effect, 100 is complete control
[15] = 62 g ai/ha, postemergence, 0 is no effect, 100 is complete control, 13 to 15 days
[16] = Postemergence, 125 g ai/ha, visual rating after 13 to 15 days, scale 0 (no effect) to 100 (complete control)
[17] = Postemergence, 250 g ai/ha, scale 0 to 100 (0 no effect, 100 complete control)
[18] = Preemergence, 31 g ai/ha, scale 0 to 100 (0 no effect, 100 complete control)
[19] = Preemergence, 62 g ai/ha, scale 0 to 100 (0 no effect, 100 complete control)
[20] = Preemergence, 125 g ai/ha, scale 0 to 100, 0 no effect, 100 complete control
[21] = Preemergence, 250 g ai/ha, 0 to 100 scale

**Q.** Which results are given for `CCCc1ncc(C(=O)C2=C(O)CCCC2=O)c(=O)n1CC1CCCO1` (stereo not drawn) [Compound 74]?
**A.** Plant response rating, Windgrass [1, 14]: 5; Windgrass plant response rating (0 to 100 scale) [1, 15]: 60; Plant response rating, Windgrass [1, 16]: 80; Plant response rating, Windgrass [1, 17]: 95; Plant response rating, Chickweed [2, 14]: 75; Chickweed plant response rating (0 to 100 scale) [2, 15]: 85; Plant response rating, Chickweed [2, 16]: 95; Plant response rating, Chickweed [2, 17]: 100; Plant response rating, Canarygrass [3, 14]: 0; Canarygrass plant response rating (0 to 100 scale) [3, 15]: 0; Plant response rating, Canarygrass [3, 16]: 0; Plant response rating, Canarygrass [3, 17]: 0; Plant response rating, Cocklebur [4, 14]: 20; Cocklebur plant response rating (0 to 100 scale) [4, 15]: 85; Plant response rating, Cocklebur [4, 16]: 90; Plant response rating, Cocklebur [4, 17]: 95; Plant response rating, Cocklebur [4, 18]: 10; Plant response rating, Cocklebur [4, 19]: 45; Plant response rating, Cocklebur [4, 20]: 70; Cocklebur plant response rating [4, 21]: 80; Plant response rating, Pigweed [5, 14]: 90; Pigweed plant response rating (0 to 100 scale) [5, 15]: 98; Plant response rating, Pigweed [5, 16]: 100; Plant response rating, Pigweed [5, 17]: 100; Plant response rating, Pigweed [5, 18]: 98; Plant response rating, Pigweed [5, 19]: 98; Plant response rating, Pigweed [5, 20]: 100; Pigweed plant response rating [5, 21]: 100; Plant response rating, Kochia [6, 14]: 75; Kochia plant response rating (0 to 100 scale) [6, 15]: 75; Plant response rating, Kochia [6, 16]: 95; Plant response rating, Kochia [6, 17]: 98; Plant response rating, Kochia [6, 18]: 80; Plant response rating, Kochia [6, 20]: 85; Kochia plant response rating [6, 21]: 85; Plant response rating, Oat, Wild [7, 14]: 20; Oat, Wild plant response rating (0 to 100 scale) [7, 15]: 20; Plant response rating, Oat, Wild [7, 16]: 60; Plant response rating, Oat, Wild [7, 17]: 80; Plant response rating, Oat, Wild [7, 18]: 0; Plant response rating, Oat, Wild [7, 19]: 0; Plant response rating, Oat, Wild [7, 20]: 5; Oat, Wild plant response rating [7, 21]: 5; Plant response rating, Soybean [8, 14]: 75; Soybean plant response rating (0 to 100 scale) [8, 15]: 75; Plant response rating, Soybean [8, 16]: 95; Plant response rating, Soybean [8, 17]: 95; Plant response rating, Goosegrass [9, 14]: 65; Goosegrass plant response rating (0 to 100 scale) [9, 15]: 75; Plant response rating, Goosegrass [9, 16]: 80; Plant response rating, Goosegrass [9, 17]: 85; Plant response rating, Goosegrass [9, 18]: 98; Plant response rating, Goosegrass [9, 19]: 98; Plant response rating, Goosegrass [9, 20]: 100; Goosegrass plant response rating [9, 21]: 100; Plant response rating, Velvetleaf [10, 14]: 98; Velvetleaf plant response rating (0 to 100 scale) [10, 15]: 100; Plant response rating, Velvetleaf [10, 16]: 100; Plant response rating, Velvetleaf [10, 17]: 100; Plant response rating, Velvetleaf [10, 18]: 98; Plant response rating, Velvetleaf [10, 19]: 100; Plant response rating, Velvetleaf [10, 20]: 100; Velvetleaf plant response rating [10, 21]: 100; Plant response rating, Johnsongrass [11, 14]: 0; Johnsongrass plant response rating (0 to 100 scale) [11, 15]: 0; Plant response rating, Johnsongrass [11, 16]: 10; Plant response rating, Johnsongrass [11, 17]: 85; Plant response rating, Johnsongrass [11, 18]: 0; Plant response rating, Johnsongrass [11, 19]: 0; Plant response rating, Johnsongrass [11, 20]: 0; Johnsongrass plant response rating [11, 21]: 0; Plant response rating, Wheat [12, 14]: 5; Wheat plant response rating (0 to 100 scale) [12, 15]: 5; Plant response rating, Wheat [12, 16]: 30; Plant response rating, Wheat [12, 17]: 50; Plant response rating, Wheat [12, 18]: 0; Plant response rating, Wheat [12, 19]: 0; Plant response rating, Wheat [12, 20]: 0; Wheat plant response rating [12, 21]: 0; Plant response rating, Ragweed [13, 14]: 75; Ragweed plant response rating (0 to 100 scale) [13, 15]: 75; Plant response rating, Ragweed [13, 16]: 85; Plant response rating, Ragweed [13, 17]: 90; Plant response rating, Ragweed [13, 18]: 10; Plant response rating, Ragweed [13, 19]: 98; Plant response rating, Ragweed [13, 20]: 98; Ragweed plant response rating [13, 21]: 100
